# From patent US20230407243A1, “GENETIC PLATFORM TO INVESTIGATE THE FUNCTIONS OF BACTERIAL DRUG EFFLUX PUMPS” (priority 2022, published 2023)
# Experiments:
# Assay type in all cases: cell-based, Escherichia coli
# [1] = tested on: EKO-35 araC::acrD Pore; test: MIC susceptibility profiling, porinated efflux platform; details: for Fold changes of MICs: EKO-35 araC::acrD Pore compared to EKO-35-Pore; for MIC: Escherichia coli, read-out: Minimum inhibitory concentration, EKO-35 araC::acrD Pore
# Outline: (§1)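 Strains carry the fhuA ΔC/Δ4L pore integrated between glmS and pstS under a constitutive promoter, with pore activity checked by vancomycin susceptibility. Overnight LB cultures were adjusted in PBS pH 7.4 to OD600 ~1.0 and diluted 1/2000 into MHB II. 2-fold compound titrations were read by OD600 after 18 h at 37 °C.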
# [2] = tested on: EKO-35 araC::emrAB Pore; test: as above; details: for Fold changes of MICs: EKO-35 araC::emrAB Pore compared to EKO-35-Pore; for MIC: Escherichia coli, read-out: Minimum inhibitory concentration
# Outline: as §1
# [3] = tested on: EKO-35 araC::mexCD Pore; test: as above; details: for Fold changes of MICs: EKO-35 araC::mexCD Pore compared to EKO-35-Pore; for MIC: Escherichia coli, read-out: Minimum inhibitory concentration
# Outline: as §1
# [4] = tested on: EKO-35 araC::emrKY Pore; test: as above; details: for Fold changes of MICs: EKO-35 araC::emrKY Pore compared to EKO-35-Pore; for MIC: Escherichia coli, read-out: Minimum inhibitory concentration
# Outline: as §1
# [5] = tested on: EKO-35 araC::mdtBC Pore; test: as above; details: for Fold changes of MICs: EKO-35 araC::mdtBC Pore compared to EKO-35-Pore; for MIC: Escherichia coli, read-out: Minimum inhibitory concentration
# Outline: as §1
# [6] = tested on: EKO-35 araC::mdtEF Pore; test: as above; details: for Fold changes of MICs: EKO-35 araC::mdtEF Pore compared to EKO-35-Pore; for MIC: Escherichia coli, read-out: Minimum inhibitory concentration, EKO-35 araC::mdtEF Pore
# Outline: as §1
# [7] = tested on: EKO-35 araC::acrBD408A Pore; test: as above; details: for Fold changes of MICs: EKO-35 araC::acrBD408A Pore compared to EKO-35-Pore; for MIC: Escherichia coli, read-out: Minimum inhibitory concentration
# Outline: as §1
# [8] = tested on: EKO-35 araC::acrB Pore; test: as above; details: for Fold changes of MICs: EKO-35 araC::acr-B Pore compared to EKO-35-Pore; for MIC: Escherichia coli, read-out: Minimum inhibitory concentration, EKO-35 araC::acrB Pore
# Outline: as §1
# [9] = tested on: EKO-35 araC::acrEF Pore; test: as above; details: for Fold changes of MICs: EKO-35 araC::acrEF Pore compared to EKO-35-Pore; for MIC: Escherichia coli, read-out: Minimum inhibitory concentration, EKO-35 araC::acrEF Pore
# Outline: as §1
# [10] = tested on: EKO-35 araC::macAB Pore; test: as above; details: for Fold changes of MICs: EKO-35 araC::macAB Pore compared to EKO-35-Pore; for MIC: Escherichia coli, read-out: Minimum inhibitory concentration
# Outline: as §1
# [11] = tested on: EKO-35 araC::emrAB; test: MIC susceptibility profiling, efflux platform; details: for Fold change of MICs: EKO-35 araC::emrAB compared to EKO-35
# Outline: (§2)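 Overnight LB cultures resuspended in PBS to OD600 ~1.0, diluted 1/2000 into MHB II, and added to 2-fold serial compound dilutions in duplicate with DMSO controls. Incubated 18 h at 37° C. with 900 rpm shaking; OD600 read before and after, background subtracted, to derive MIC.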
# [12] = tested on: EKO-35 araC::acrBD408A; test: MIC susceptibility profiling, efflux platform; details: for Fold change of MICs: EKO-35 araC::acrBD408A compared to EKO-35
# Outline: as §2
# [13] = tested on: EKO-35 araC::mdtBC; test: MIC susceptibility profiling, efflux platform; details: for Fold change of MICs: EKO-35 araC::mdtBC compared to EKO-35; for MIC: Escherichia coli, read-out: Minimum Inhibitory Concentration, EKO-35 araC::mdtBC
# Outline: as §2
# [14] = tested on: EKO-35 araC::mexCD (MexCD from P. aeruginosa); test: MIC susceptibility profiling, efflux platform; details: for Fold change of MICs: EKO-35 araC::mexCD compared to EKO-35; for MIC: read-out: Minimum Inhibitory Concentration, EKO-35 araC::mexCD
# Outline: as §2
# [15] = tested on: EKO-35 araC::macAB; test: MIC susceptibility profiling, efflux platform; details: for Fold change of MICs: EKO-35 araC::macAB compared to EKO-35
# Outline: as §2
# [16] = tested on: EKO-35 araC::acrEF; test: MIC susceptibility profiling, efflux platform; details: for Fold change of MICs: EKO-35 araC::acrEF compared to EKO-35; for MIC: Escherichia coli, read-out: Minimum Inhibitory Concentration, EKO-35 araC::acrEF
# Outline: as §2
# [17] = tested on: EKO-35 araC::acrD; test: MIC susceptibility profiling, efflux platform; details: for Fold change of MICs: EKO-35 araC::acrD compared to EKO-35; for MIC: Escherichia coli, read-out: Minimum Inhibitory Concentration, EKO-35 araC::acrD
# Outline: as §2
# [18] = tested on: EKO-35 araC::emrKY; test: MIC susceptibility profiling, efflux platform; details: for Fold change of MICs: EKO-35 araC::emrKY compared to EKO-35; for MIC: Escherichia coli, read-out: Minimum Inhibitory Concentration, EKO-35 araC::emrKY
# Outline: as §2
# [19] = Table 14A, porinated, technical duplicate
# [20] = EKO-35 araC::emrAB Pore, technical duplicate
# [21] = EKO-35 araC::mexCD Pore, technical duplicate
# [22] = EKO-35 araC::emrKY Pore, technical duplicate
# [23] = EKO-35 araC::mdtBC Pore, technical duplicate
# [24] = EKO-35 araC::acrBD408A Pore, technical duplicate
# [25] = EKO-35 araC::macAB Pore, technical duplicate
# [26] = Table 13B, non-porinated, technical duplicate
# [27] = Table 13A, non-porinated, technical duplicate
smiles,measurement,setting,value
CN(C)c1ccc(O)c2c1C[C@H]1C[C@H]3[C@H](N(C)C)C(O)=C(C(N)=O)C(=O)[C@@]3(O)C(O)=C1C2=O [minocycline],Fold changes of MICs,[1],2 fold
same,MIC,[1]; [19],0.098 µg/mL
same,Fold changes of MICs,[2],1 fold
same,MIC,[2]; [20],0.049 µg/mL
same,Fold changes of MICs,[3],1 fold
same,MIC,[3]; [21],0.049 µg/mL
same,Fold changes of MICs,[4],1 fold
same,MIC,[4]; [22],0.049 µg/mL
same,Fold changes of MICs,[5],1 fold
same,MIC,[5]; [23],0.049 µg/mL
same,Fold changes of MICs,[6],2 fold
same,MIC,[6]; [19],0.098 µg/mL
same,Fold changes of MICs,[7],1 fold
same,MIC,[7]; [24],0.049 µg/mL
same,Fold changes of MICs,[8],8 fold
same,MIC,[8]; [19],0.391 µg/mL
same,Fold changes of MICs,[9],2 fold
same,MIC,[9]; [19],0.098 µg/mL
same,Fold changes of MICs,[10],1 fold
same,MIC,[10]; [25],0.049 µg/mL
same,Fold change of MICs,[11],1 fold
same,MIC,"[11]; Escherichia coli, Table 13B, non-porinated, technical duplicate, read-out: Minimum Inhibitory Concentration, EKO-35 araC::emrAB",0.049 µg/mL
same,Fold change of MICs,[12],1 fold
same,MIC,"[12]; Escherichia coli, Table 13B, non-porinated, technical duplicate, read-out: Minimum Inhibitory Concentration, EKO-35 araC::acrBD408A",0.049 µg/mL
same,Fold change of MICs,[13],1 fold
same,MIC,[13]; [26],0.049 µg/mL
same,Fold change of MICs,[14],1 fold
same,MIC,[14]; [26],0.049 µg/mL
same,Fold change of MICs,[15],1 fold
same,MIC,"[15]; Escherichia coli, Table 13B, non-porinated, technical duplicate, read-out: Minimum Inhibitory Concentration, EKO-35 araC::macAB",0.049 µg/mL
same,Fold change of MICs,[16],2 fold
same,MIC,[16]; [27],0.098 µg/mL
same,Fold change of MICs,[17],2 fold
same,MIC,[17]; [27],0.098 µg/mL
same,Fold change of MICs,[18],1 fold
same,MIC,[18]; [26],0.049 µg/mL
N#CC(C#N)=NNc1ccc(-n2ccc(C(F)(F)F)n2)cc1 [compound 8],Fold changes of MICs,[1],1 fold
same,"Minimum inhibitory concentration, EKO-35 araC::acrD Pore",[1]; [19],40 µg/mL
same,Fold changes of MICs,[2],1 fold
same,Minimum inhibitory concentration,[2]; [20],40 µg/mL
same,Fold changes of MICs,[3],1 fold
same,Minimum inhibitory concentration,[3]; [21],80 µg/mL
same,Fold changes of MICs,[4],1 fold
same,Minimum inhibitory concentration,[4]; [22],80 µg/mL
same,Fold changes of MICs,[5],1 fold
same,Minimum inhibitory concentration,[5]; [23],80 µg/mL
same,Fold changes of MICs,[6],1 fold
same,"Minimum inhibitory concentration, EKO-35 araC::mdtEF Pore",[6]; [19],80 µg/mL
same,Fold changes of MICs,[7],1 fold
same,Minimum inhibitory concentration,[7]; [24],80 µg/mL
same,Fold changes of MICs,[8],2 fold
same,"Minimum inhibitory concentration, EKO-35 araC::acrB Pore",[8]; [19],160 µg/mL
same,Fold changes of MICs,[9],1 fold
same,"Minimum inhibitory concentration, EKO-35 araC::acrEF Pore",[9]; [19],40 µg/mL
same,Fold changes of MICs,[10],1 fold
same,Minimum inhibitory concentration,[10]; [25],80 µg/mL
same,Fold change of MICs,[11],1 fold
same,"Minimum Inhibitory Concentration, EKO-35 araC::emrAB",[11]; [26],320 µg/mL
same,Fold change of MICs,[12],1 fold
same,"Minimum Inhibitory Concentration, EKO-35 araC::acrBD408A",[12]; [26],320 µg/mL
same,Fold change of MICs,[13],1 fold
same,"Minimum Inhibitory Concentration, EKO-35 araC::mdtBC",[13]; [26],320 µg/mL
same,Fold change of MICs,[14],1 fold
same,"Minimum Inhibitory Concentration, EKO-35 araC::mexCD",[14]; [26],320 µg/mL
same,Fold change of MICs,[15],1 fold
same,"Minimum Inhibitory Concentration, EKO-35 araC::macAB",[15]; [26],320 µg/mL
same,Fold change of MICs,[16],1 fold
same,"Minimum Inhibitory Concentration, EKO-35 araC::acrEF",[16]; [27],320 µg/mL
same,Fold change of MICs,[17],1 fold
same,"Minimum Inhibitory Concentration, EKO-35 araC::acrD",[17]; [27],160 µg/mL
same,Fold change of MICs,[18],1 fold
same,"Minimum Inhibitory Concentration, EKO-35 araC::emrKY",[18]; [26],320 µg/mL
C[C@@H]1O[C@@H]1P(=O)(O)O [fosfomycin],Fold changes of MICs,[1],1 fold
same,MIC,[1]; [19],0.781 µg/mL
same,Fold changes of MICs,[2],2 fold
same,MIC,[2]; [20],1.56 µg/mL
same,Fold changes of MICs,[3],2 fold
same,MIC,[3]; [21],1.56 µg/mL
same,Fold changes of MICs,[4],1 fold
same,MIC,[4]; [22],0.781 µg/mL
same,Fold changes of MICs,[5],1 fold
same,MIC,[5]; [23],0.781 µg/mL
same,Fold changes of MICs,[6],1 fold
same,MIC,[6]; [19],0.781 µg/mL
same,Fold changes of MICs,[7],1 fold
same,MIC,[7]; [24],0.781 µg/mL
same,Fold changes of MICs,[8],1 fold
same,MIC,[8]; [19],0.781 µg/mL
same,Fold changes of MICs,[9],2 fold
same,MIC,[9]; [19],1.56 µg/mL
same,Fold changes of MICs,[10],1 fold
same,MIC,[10]; [25],0.781 µg/mL
same,Fold change of MICs,[11],1 fold
same,Fold change of MICs,[12],1 fold
same,Fold change of MICs,[13],1 fold
same,MIC,[13]; [26],1.56 µg/mL
same,Fold change of MICs,[14],1 fold
same,MIC,[14]; [26],1.56 µg/mL
same,Fold change of MICs,[15],1 fold
same,MIC,[16]; [27],1.56 µg/mL
same,Fold change of MICs,[17],1 fold
same,MIC,[17]; [27],1.56 µg/mL
same,Fold change of MICs,[18],1 fold
same,MIC,[18]; [26],1.56 µg/mL
